{
  "source": "patent US8758782B2",
  "about": "“Excipient preservatives and pharmaceutical compositions comprised thereof” (Galderma Research & Development, priority 2007, dated 2014)",
  "key": {"[1]": {"test_system": "Candida albicans, reference ATCC 10231", "assay": "Preservative Efficacy Test (PET), Candida albicans", "format": "cell-based", "design": "key to Yeast, Candida albicans: −: No European pharmacopoeia criterion or USP criterion is met; +: for the coli: the USP criteria are met; ++: the European pharmacopoeia criteria A are met", "details": "additive in standard emulsion", "source_text": "(§1) A particular problem that must be solved by the invention is that of effectively protecting a pharmaceutical topical composition while at the same time meeting the criteria required by the European and U.S. pharmacopoeias. This is because, since the purpose of the pharmaceutical composition is to become a pharmaceutical product with a marketing authorization, it is imperative for the composition according to the invention to meet these criteria. In order to verify this point and to determine the antimicrobial action of the various mixtures of excipients according to the invention, a test protocol, known as the PET (Preservative Efficacy Test), exists. The PET comprises artificially inoculating the compositions with a known number of microorganisms, and then determining the decrease in the latter in the compositions tested, at given times. The protocol of this test is set up in order to abide by the recommendations of the European and U.S. pharmacopoeias. […] The mixture of excipients as preservatives, described herein, should therefore meet the criteria of these pharmacopoeias in the PET. This test comprises artificially contaminating aliquots of formulation by means of a calibrated inoculum of specific microorganisms and incubating the same at precise temperatures. Samples are taken from the contaminated aliquots at given time intervals in order to count the microorganisms. Fungi: • Candida albicans, reference ATCC 10231; NCPF 3179; IP 48.72. • Aspergillus niger, reference ATCC 16404; IMI 149007; IP 1431.83. Fungi: • Candida albicans, reference ATCC 10231. • Aspergillus niger, reference ATCC 16404."}, "[2]": {"test_system": "Escherichia coli, reference ATCC 8739", "assay": "Preservative Efficacy Test (PET), Escherichia coli", "format": "cell-based", "design": "key to Gram− bacterium, Esoherichia coli: −: No European pharmacopoeia criterion or USP criterion is met; +: for the coli: the USP criteria are met; ++: the European pharmacopoeia criteria A are met", "details": "additive in standard emulsion", "source_text": "(§2) A particular problem that must be solved by the invention is that of effectively protecting a pharmaceutical topical composition while at the same time meeting the criteria required by the European and U.S. pharmacopoeias. This is because, since the purpose of the pharmaceutical composition is to become a pharmaceutical product with a marketing authorization, it is imperative for the composition according to the invention to meet these criteria. In order to verify this point and to determine the antimicrobial action of the various mixtures of excipients according to the invention, a test protocol, known as the PET (Preservative Efficacy Test), exists. The PET comprises artificially inoculating the compositions with a known number of microorganisms, and then determining the decrease in the latter in the compositions tested, at given times. The protocol of this test is set up in order to abide by the recommendations of the European and U.S. pharmacopoeias. […] The mixture of excipients as preservatives, described herein, should therefore meet the criteria of these pharmacopoeias in the PET. This test comprises artificially contaminating aliquots of formulation by means of a calibrated inoculum of specific microorganisms and incubating the same at precise temperatures. Samples are taken from the contaminated aliquots at given time intervals in order to count the microorganisms. Bacteria: • Escherichia coli, reference ATCC 8739. • Pseudomonas aeruginosa, reference ATCC 9027. • Staphylococcus aureus, reference ATCC 6538."}, "[3]": {"test_system": "Staphylococcus aureus, reference ATCC 6538", "assay": "Preservative Efficacy Test (PET), Staphylococcus aureus", "format": "cell-based", "design": "key to Gram+ bacterium, Staphylococcus aureus: −: No European pharmacopoeia criterion or USP criterion is met; +: for the coli: the USP criteria are met; ++: the European pharmacopoeia criteria A are met", "details": "additive in standard emulsion", "source_text": "as §2, with “Bacteria: • Pseudomonas aeruginosa, reference ATCC 9027; NCIMB 8626; CIP 82.118. • Staphylococcus aureus, reference ATCC 6538; NCTC 10788; NCIMB 9518; CIP 4.83. Bacteria: • Escherichia coli,” for “Bacteria: • Escherichia coli,”"}, "[4]": {"test_system": "Bacteria and fungi (Escherichia coli, Pseudomonas aeruginosa, Staphylococcus aureus, Candida albicans, Aspergillus niger)", "assay": "PET, overall compliance with European and U.S. pharmacopoeia criteria", "format": "cell-based", "details": "additive in standard emulsion", "source_text": "A particular problem that must be solved by the invention is that of effectively protecting a pharmaceutical topical composition while at the same time meeting the criteria required by the European and U.S. pharmacopoeias. This is because, since the purpose of the pharmaceutical composition is to become a pharmaceutical product with a marketing authorization, it is imperative for the composition according to the invention to meet these criteria. In order to verify this point and to determine the antimicrobial action of the various mixtures of excipients according to the invention, a test protocol, known as the PET (Preservative Efficacy Test), exists. The PET comprises artificially inoculating the compositions with a known number of microorganisms, and then determining the decrease in the latter in the compositions tested, at given times. The protocol of this test is set up in order to abide by the recommendations of the European and U.S. pharmacopoeias. The test and also the recommendations of the European and U.S. pharmacopoeias are described in Example 1 to follow. The mixture of excipients as preservatives, described herein, should therefore meet the criteria of these pharmacopoeias in the PET.\nThis test comprises artificially contaminating aliquots of formulation by means of a calibrated inoculum of specific microorganisms and incubating the same at precise temperatures. Samples are taken from the contaminated aliquots at given time intervals in order to count the microorganisms.\nIt also makes it obligatory to study the reductions in population of the microorganisms introduced into the formulation according to two acceptability criteria.\nSince the A criteria are the most strict, it are […] generally required that they be met.\nIn justified cases, when the A criteria cannot be complied with, for example owing to an increase in the risk of adverse reactions, the B criteria, which are less drastic, apply.\nNI (Non-Increase) signifies that there must not be an increase in the number of microorganisms.\nIt imposes logarithmic reductions in the population of microorganisms which are different than that of the European pharmacopoeia."}, "[5]": {"assay": "pH of the emulsion containing the additive", "format": "physicochemical", "details": "standard emulsion with 2% citric acid"}, "[6]": {"test_system": "Pseudomonas aeruginosa, reference ATCC 9027", "assay": "Preservative Efficacy Test (PET), Pseudomonas aeruginosa", "format": "cell-based", "design": "key to Gram− bacterium, Pseudomonas aeruginosa: −: No European pharmacopoeia criterion or USP criterion is met; +: for the coli: the USP criteria are met; ++: the European pharmacopoeia criteria A are met", "details": "additive in standard emulsion", "source_text": "as §2, with “Bacteria: • Pseudomonas aeruginosa, reference ATCC 9027; NCIMB 8626; CIP 82.118. • Staphylococcus aureus, reference ATCC 6538; NCTC 10788; NCIMB 9518; CIP 4.83. Bacteria: • Escherichia coli,” for “Bacteria: • Escherichia coli,”"}, "[7]": {"test_system": "Aspergillus niger, reference ATCC 16404", "assay": "Preservative Efficacy Test (PET), Aspergillus niger", "format": "cell-based", "design": "key to Moulds, Aspergillus Niger: −: No European pharmacopoeia criterion or USP criterion is met; +: for the coli: the USP criteria are met; ++: the European pharmacopoeia criteria A are met", "details": "additive in standard emulsion at its given % (EDTA 0.15, citric acid 2, sodium ascorbate 2, tocopherol 0.05, BHT 1, propyl gallate 0.1, ascorbyl palmitate 1)", "source_text": "as §1"}},
  "data": [
    {"smiles": "O=C(O)CC(O)(CC(=O)O)C(=O)O", "note": "[Citric acid]", "values": [
      {"measurement": "Action on Candida albicans", "setting": "[1]", "value": "inhibits"},
      {"measurement": "Yeast, Candida albicans", "setting": "[1]", "value": "++"},
      {"measurement": "Gram− bacterium, Esoherichia coli", "setting": "[2]", "value": "+"},
      {"measurement": "Gram+ bacterium, Staphylococcus aureus", "setting": "[3]", "value": "++"},
      {"measurement": "Efficacy on the microorganisms as a whole / spectrum of efficacy", "setting": "[4]", "value": "bactericidal"},
      {"measurement": "pH", "setting": "[5]", "value": 2.04},
      {"measurement": "Gram− bacterium, Pseudomonas aeruginosa", "setting": "[6]", "value": "++"},
      {"measurement": "Moulds, Aspergillus Niger", "setting": "[7]", "value": "−"}
    ]}
  ]
}
